Source: ChEMBL document CHEMBL3400133, “Three new fusidic acid derivatives and their antibacterial activity” (2015)
The source made the active and inactive calls. The rule behind the calls is not given here.

What was measured:
Staphylococcus aureus [1] = test: Antibacterial activity against methicillin-resistant Staphylococcus aureus ATCC 33591 assessed as inhibition of microbial growth at 0.064 ug/ml to 125 ug/ml incubated at 37 degC for 20 hrs; assay type: functional; conditions: ATCC 33591, 20 h
Escherichia coli = test: Antibacterial activity against Escherichia coli XL-1 Blue assessed as inhibition of microbial growth at 0.064 ug/ml to 125 ug/ml incubated at 37 degC for 20 hrs; assay type: functional, organism-based
Staphylococcus aureus [2] = test: Antibacterial activity against Staphylococcus aureus ATCC 25923 assessed as inhibition of microbial growth at 0.064 ug/ml to 125 ug/ml incubated at 37 degC for 20 hrs; assay type: functional; conditions: ATCC 25923, 20 h

SMILES	MIC (Staphylococcus aureus [1]) [µg/mL]	MIC (Escherichia coli)	MIC (Staphylococcus aureus [2]) [µg/mL]
CC(=O)O[C@@H]1[C@H]2[C@H](C)[C@H](O)CC[C@]2(C)[C@@H]2CC[C@H]3/C(=C(\CCC=C(C)C)C(=O)O)[C@@H](OC(C)=O)C[C@]3(C)[C@@]2(C)[C@H]1O	8	inactive	8
NC[C@H]1O[C@H](O[C@H]2[C@H](O)[C@@H](O[C@H]3O[C@H](CO)[C@@H](O)[C@H](N)[C@H]3O)[C@H](N)C[C@@H]2N)[C@H](O)[C@@H](O)[C@@H]1O [KANAMYCIN]	> 125	–	2
CC(=O)OC1C[C@@]2(C)[C@@H](CC[C@H]3[C@@]4(C)CCC(=O)[C@@H](C)[C@@H]4[C@@H](OC(C)=O)[C@H](O)[C@@]32C)/C1=C(\CCC=C(C)C)C(=O)O (single isomer, unassigned)	8	inactive	4
CC(=O)O[C@H]1C[C@@]2(C)[C@@H](CC[C@H]3[C@@]4(C)CC[C@@H](O)[C@@H](C)[C@@H]4[C@@H](O)[C@H](OC(C)=O)[C@@]32C)/C1=C(\CCC=C(C)C)C(=O)O	125	inactive	64
CC(=O)OC1C[C@@]2(C)[C@@H](CC[C@H]3[C@@]4(C)CCC(=O)[C@@H](C)[C@@H]4[C@@H](O)[C@H](OC(C)=O)[C@@]32C)/C1=C(\CCC=C(C)C)C(=O)O (single isomer, unassigned)	> 125	inactive	64
CC(=O)OC1C[C@@]2(C)[C@@H](CC[C@H]3[C@@]4(C)CCC(=O)[C@@H](C)[C@@H]4[C@@H](O)[C@H](O)[C@@]32C)/C1=C(\CCC=C(C)C)C(=O)O (single isomer, unassigned)	> 125	inactive	> 125
